We go through three compounds from patent US6048872A, “Arylethanolamine derivatives and their use as agonists of atypical beta-adrenoceptors” (Glaxo Wellcome Inc., priority 1995, dated 2000).

Assay [1] addresses T1, human beta-3-adrenoceptor (Homo sapiens, UniProt P13945).
T1 construct: whole-cell cAMP accumulation, potency relative to isoprenaline
Description: cAMP accumulation in CHO cells transfected with the human beta-3-adrenoceptor (Method 1), potency relative to isoprenaline. Particulars: relative potency of test agonist compared to isoprenaline (EC50 ratio), H β3 CHO cells. Format: cell-based. The protocol: […] The cell lines may also be transfected with human beta-1- and beta-2- adrenoceptor in a similar manner to provide a method of determining the selectivity of the compounds of the invention at the three receptors.
General cell culture guidelines are observed (Fershney, R. A. (1987) Culture of animal cells: A manual of basic technique. Wiley-Liss, Inc., N.Y.). A standard cell culture incubator is used (37° C., 5% CO2 in air, 95% relative humidity). H β3 CHO cells are grown in 75 ml flasks in MEMα medium containing 9% FCS & 125 μg/ml G418. One confluent flask of cells is trypsinised and resuspended in 80 ml of culture medium; 1 ml of the cell suspension is added to each well of three 24-well plates. The plates are then incubated for 1 day.
The medium is aspirated from each well, and the well rinsed with phosphate-buffered saline (PBS, this is then aspirated). 1 ml of MEMα (no FCS or G418, 300μ M IBMX) is added to each well. Antagonists, if required, are added at this stage. The plate is then placed back in the incubator for 30 min. Drugs are then added to the wells (10 μl, 100x required final concentration), the plate gently swirled to mix the drugs, and the plate placed back in the incubator for 30 min. The medium is then aspirated from each well, the well rinsed with PBS, and 0.5 ml perchloric acid (6% v/v in distilled water, 2-5° C.). The plate is left on ice for 30 min. The perchloric acid (containing cAMP) is transferred to a clean 24-well plate and the acid neutralised by addition of saturated KHCO3 solution (200 μl) to each well. The plate is then swirled and frozen (-20° C.) until cAMP is assayed. cAMP is assayed using an enzyme-immunoassay kit (Amersham).
The relative potency of each test agonist (EPMR) is compared to isoprenaline as follows: [formula] wherein EC50 is the molar concentration of agonist which produces 50% of the maximum possible response for that agonist.
On the technique in general: cAMP levels reflect the balance of adenylyl cyclase and phosphodiesterase activity.

Assay [2] has as its system indomethacin-induced antral damage. In words: Protective effect on indomethacin-induced gastric antral lesions in the re-fed rat (Method 2). In kind it is in vivo. The settings on record: po, rats dosed orally 30 minutes before indomethacin 60 mg/kg s.c., antral damage assessed at 6 hours post dose. The method, then: […] The procedure is based upon that described by H. Satoh et. al., Gastroenterology, 81, 719-725 (1981) in which the effect of compounds on indomethacin-induced gastric antral lesions in the re-fed rat is investigated. Indomethacin is an example of the class of compound known as non-steroidal anti-inflammatory drugs (NSAIDs), the use of which is frequently associated with gastrointestinal ulcers.
Food (but not water) is withheld from female random hooded rats (70-120 g) for 24 hours and then the rats are re-fed with Rat and Mouse No. 1 Maintenance Diet. After 1 hour of access to food, the rats are dosed orally with either the test compound or solvent (0.5% w/v methyl cellulose in water). […]
The rat's stomach is removed (with a small amount of duodenum attached), opened along the greater curvature and the contents removed by washing with 0.9% w/v sodium chloride solution (saline). The opened stomach is pinned out (mucosal surface uppermost) on a polystyrene mat and the area of damage assessed by placing a grid (composed of 1 mm squares) over the antral region. […] The total area of antral damage is then expressed as a percentage of the total surface area of the antrum.
The protective effect of the test compound on indomethacin-induced antral damage is calculated as a percentage using the following equation: [formula]

SMILES strings stand for the structures. Counter-ions that a name gives are not always drawn.

T1 sequence (P13945 whole entry): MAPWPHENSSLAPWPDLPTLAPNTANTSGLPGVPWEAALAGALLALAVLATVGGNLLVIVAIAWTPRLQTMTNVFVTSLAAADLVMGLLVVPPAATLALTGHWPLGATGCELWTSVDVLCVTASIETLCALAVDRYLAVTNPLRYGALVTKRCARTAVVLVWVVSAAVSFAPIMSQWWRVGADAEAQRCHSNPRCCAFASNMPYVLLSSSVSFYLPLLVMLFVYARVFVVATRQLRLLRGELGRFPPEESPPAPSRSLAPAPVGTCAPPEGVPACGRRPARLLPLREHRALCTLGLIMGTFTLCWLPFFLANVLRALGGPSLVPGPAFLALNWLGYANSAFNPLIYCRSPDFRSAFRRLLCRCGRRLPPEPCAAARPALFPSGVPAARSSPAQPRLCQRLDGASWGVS

For `C[C@H](CNc1ccc(CC(=O)O)c(F)c1F)NC[C@H](O)c1cccc(Cl)c1` [Example 7, (4-{2R-[2-(3-Chloro-phenyl)-2R-hydroxyl-ethylamino]-propylamino}-2,3-difluoro-phenyl)-acetic acid], the EPMR in assay [1] is reported as 0.2. The 50% effect level in assay [2] (ED50) was put at a dose of 3 µg/kg.

As to `COc1cc(NC[C@@H](C)NC[C@H](O)c2cccc(Cl)c2)c(Cl)cc1CC(=O)O` [Example 8, (5-Chloro-4-{2R-[2-(3-chloro-phenyl)-2R-hydroxy-ethylaminol-propylamino}-2-methoxy-phenyl)-acetic acid dihydrochloride], the EPMR in assay [1] was 0.4.

Consider `C[C@H](CNc1cc(F)c(OCC(=O)O)c(F)c1)NC[C@H](O)c1cccc(Cl)c1` [Example 15, (4-{2R-[2-(3-Chloro-phenyl)-2R-hydroxy-ethylamino]-propylamino}-2,6-difluoro-phenoxy)-acetic acid], for which the EPMR in assay [1] turned out to be 6.0.
